For seven compounds, EC50 and MIC results are on record in patent publication US20050215490A1, “Polyene polyketides and methods of treating bacterial infections” (Ecopia BioSciences, Inc., priority 2003, published 2005).

Common to all, as to assay type: cell-based
One series can be described thus: in vitro. The conditions noted are these: sheep. As to the method:
A. Toxicity: Acute toxicities were determined using CD-1 female mice (supplied by Charles River Laboratories, Wilmington, Mass.) having a bodyweight of 18-25 g, and about 6 weeks of age. Compounds 1 and 2 at doses ranging from 1 to 70 mg/kg (formulated in 20% propylene glycol/water for a total volume of 10 μL/g of weight) were administered intraperitoneal (i.p.) and intravenous (i.v.) to groups of 5 mice (5 mice per concentration, per mode of administration). Two groups of 3 mice were injected with vehicle only. Mice were observed immediately after injection, within 4 hours and once a day for the subsequent days. Acute toxicity studies of Compound 1 in mice indicated no observable effect and high dose tolerability: 70 mg/kg intraperitoneal and 50 mg/kg intravenous (an MTD of 250 mg/kg was also determined by oral administration). […] In vitro Haemolytic activity results are also shown in Table 7, along with the in vivo toxicity and efficacy of Compound 1.

For series [1], the system named is Staphylococcus aureus NRRL B-313 (ATCC™ 6538P). Put plainly: MIC at different pH. As to the method:
Antibacterial activitiy of Compounds.3, 4, 5, 6 and 7 are accomplished using the same method in a panel of bacterial strains and Vancomycin as positive control.
Antibacterial efficacy of Compounds 1, 2, 3, 4, 5 and 6 on bacterial strain Staphylococcus aureus NRRL B-313 (ATCC™ 6538P) was determined at different pH concentrations.

Series [2] concerns Bacillus megaterium (ATCC™ 14581). Put plainly: MIC, broth microdilution (NCCLS M7-A5). The conditions noted are these: Priestia megaterium, ATCC14581, 18 h. As to the method: (§1) Antibacterial activity of Compounds 1 and 2 (Table 4) was measured by determining the minimal inhibitory concentration (MIC) necessary to obtain a complete inhibition of bacteria growth in eight indicator strains, namely Staphylococcus aureus (ATCC™ 6538P), Staphylococcus aureus MRS3 (ATCC™ 700699), Staphylococcus epidermidis (ATCC™ 12228), Bacillus subtilis (ATCC™ 23857), Bacillus megaterium (ATCC™ 14581), Enterococcus faecalis VRE-1 (ATCC™ 29212), Enterococcus faecalis VRE-2 (ATCC™ 51299) and Micrococcus luteus (ATCC™ 9341). Indicator strains preparation and MIC determination were performed according to the National Committee for Clinical Laboratory Standards (NCCLS) guideline M7-A5 Methods for Dilution Antimicrobial Susceptibility Tests for Bacteria That Grow Aerobically; Approved Standard-Fifth Edition. (NCCLS document M7-A5, ISBN 1-56238-394-9; NCCLS, 940 West Valley Road, Suite 1400, Wayne, Pa. 19087-1898 USA), the content of which is incorporated herein by reference.
(§2) Compounds 1 and 2 were prepared as 100× stock solution in DMSO, with concentrations ranging from 3.2 mg/ml to 0.00625 mg/ml (a two-fold dilution series over […]). An aliquot of each 100× stock solution was diluted 50-fold in test medium described below to give a set of ten (10) 2× solutions ranging from 64 to 0.125 μg/mL. 50 μl of each of the ten 2× solutions was aliquoted into the corresponding well of a 12-well row, with the final well reserved for medium alone control. Each test was made in duplicate.
(§3) Vancomycin (Sigma™) used as positive control compounds, was prepared as 2× stock solutions in sterile, double-distilled water (ddH2O) ranging from 64 μg/ml to […] (a two-fold dilution series over 10 points). An aliquot of 50 μl corresponding to each concentration (at 2×) was then transferred to 96-well microplates to obtain a series of eleven two-fold dilutions.
(§4) An isolated colony of each of the eight indicator strains was used to inoculate tubes containing 3 ml of test medium. Mueller-Hinton test medium was used for Staphylococcus aureus (ATCC™ 6538P), Staphylococcus aureus MRS3 (ATCC™ 700699), Staphylococcus epidermidis (ATCC™ 12228), Bacillus subtilis (ATCC™ 23857), Bacillus megaterium (ATCC™ 14581) and Micrococcus luteus (ATCC™ 9341) indicator strains, and BHI (Brain-Heart Infusion broth) test medium was used for Enterococcus faecalis VRE-1 (ATCC™ 29212) and Enterococcus faecalis VRE-2 (ATCC™ 51299) indicator strains. Cells were grown overnight at 28° C. with shaking. Inoculum density for each indicator strain was adjusted to OD600=0.1 in 5 ml 0.85% saline, then further diluted 1/100 in appropriate medium. 50 μl of the final dilution (in test medium) of each indicator strain was added to each well of a 12-well row. This brings the final dilution of the test article or control compound in solution to 1×. The final inoculum is approximately 5×10^5 CFU/ml.
(§5) The indicator strains were incubated with 11 concentrations of each of Compounds 1 and 2, Vancomycin (Sigma™) control compound and one media alone control. For MIC determination, assay plates were incubated at 35° C. for 18 hours.

Series [3] deals with Bacillus subtilis (ATCC™ 23857). In words: MIC, broth microdilution (NCCLS M7-A5). The conditions noted are these: ATCC23857, 18 h. As to the method:
as §1, §2, §3, §4, §5
(In broth dilution the organism is exposed to a series of concentrations in liquid medium.)

The subject of series [4] is Enterococcus faecalis VRE-1 (ATCC™ 29212). In words: MIC, broth microdilution (NCCLS M7-A5). The following applies: 18 h. As to the method:
as §1, §2, §3, §4, §5

For series [5], the system named is Enterococcus faecalis VRE-2 (ATCC™ 51299). Put plainly: MIC, broth microdilution (NCCLS M7-A5). The following applies: 18 h. As to the method: as §1, §2, §3, §4, §5
Series [6] concerns Micrococcus luteus (ATCC™ 9341). In words: MIC, broth microdilution (NCCLS M7-A5). The conditions noted are these: ATCC9341, 18 h. As to the method:
as §1, §2, §3, §4, §5

The test system of series [7] is Staphylococcus aureus (ATCC™ 6538P). Put plainly: MIC, broth microdilution (NCCLS M7-A5). The following applies: ATCC6538P, 18 h. As to the method: as §1, §2, §3, §4, §5
Series [8] relates to Staphylococcus aureus MRS3 (ATCC™ 700699). Put plainly: MIC, broth microdilution (NCCLS M7-A5). The following applies: ATCC700699, 18 h. As to the method:
as §1, §2, §3, §4, §5

Series [9] has as its system Staphylococcus epidermidis (ATCC™ 12228). Put plainly: MIC, broth microdilution (NCCLS M7-A5). The conditions noted are these: ATCC12228, 18 h. As to the method:
as §1, §2, §3, §4, §5

[10] abbreviates: S. aureus ATCC 6538P, pH 5.0, read-out: MIC.
Setting [11] is: S. aureus ATCC 6538P, pH 6.0, read-out: MIC.
Where [12] appears, read: S. aureus ATCC 6538P, pH 7.0, read-out: MIC.

Values after ≈ are worked out from the molar mass of the structure shown. Like-named read-outs stand apart in the source and are kept apart here.

In the case of `C[C@@H]1[C@H](O)[C@@H](C)/C=C/C=C/C=C/C=C/C=C/C=C/C=C/[C@H](O[C@@H]2O[C@H](C)[C@@H](O)[C@H](N)[C@@H]2O)C[C@@H]2O[C@](O)(C[C@@H](O)C[C@@H](O)[C@H](O)CC[C@@H](O)C[C@@H](O)CC(=O)O[C@H]1C)C[C@H](O)[C@H]2C(=O)O` [Amphotericin, reference compound], the midpoint of the response in the series “in vitro”, the EC50, lay at 3 µg/mL (≈ 3.25 µM).

In the case of `COC(=O)C1OC(OC(/C(C)=C/C(C)CCC/C=C/C(C)C/C=C/CCCN(C)C(=N)N)C(C)/C=C/C=C/C=C/C=C/C=C(\C)C(=O)NC2=C(O)CCC2=O)C(O)C(O)C1O` (stereo not shown) [Compound 3, 3,4,5-trihydroxy-6-[1-[11-(2-hydroxy-5-oxocyclopent-1-enylcarbamoyl)-1-methyldodeca-2,4,6,8,10-pentaenyl]-2,4,10-trimethyl-16-(N-methyl-guanidino)-hexadeca-2,8,12-trienyloxy]-tetrahydropyran-2-carboxylic acid methyl ester], the values for the MIC in series [1] (setting [10]), in series [1] (setting [11]) and in series [1] (setting [12]) were 2 µg/mL (≈ 2.35 µM), 4 to 8 µg/mL (≈ 4.7 to 9.4 µM) and 16 µg/mL (≈ 18.8 µM), respectively.

For `COC1=C(NC(=O)/C(C)=C/C=C/C=C/C=C/C=C/C(C)C(OC2OC(C(=O)O)C(O)C(O)C2O)/C(C)=C/C(C)CCC/C=C/C(C)C/C=C/CCCN(C)C(=N)N)C(=O)CC1` (stereo not shown) [Compound 4, 3,4,5-trihydroxy-6-[1-[11-(2-methoxy-5-oxo-cyclopent-1-enylcarbamoyl)-1-methyldodeca-2,4,6,8,10-pentaenyl]-2,4,10-trimethyl-16-(N-methyl-guanidino)-hexadeca-2,8,12-trienyloxy]-tetrahydropyran-2-carboxylic acid], the MIC in series [1] (setting [10]), in [1] (setting [11]) and in series [1] (setting [12]) was 2 µg/mL (≈ 2.35 µM) throughout.

Consider `COC(=O)C1OC(OC(C(C)=CC(C)CCCC=CC(C)CC=CCCCN(C)C(=N)N)C(C)C=CC=CC=CC=CC=C(C)C(=O)NC2=C(OC)CCC2=O)C(O)C(O)C1O` (stereo not shown) [Compound 5, 3,4,5-trihydroxy-6-[1-[11-(2-methoxy-5-oxo-cyclopent-1-enylcarbamoyl)-1-methyldodeca-2,4,6,8,10-pentaenyl]-2,4,10-trimethyl-16-(N-methyl-guanidino)-hexadeca-2,8,12-trienyloxy]-tetrahydropyran-2-carboxylic acid methyl ester], for which the figures for the minimum inhibitory concentration (MIC) in series [1] (setting [10]), in series [1] (setting [11]) and in series [1] (setting [12]) were 2 µg/mL (≈ 2.31 µM), 4 µg/mL (≈ 4.62 µM) and 4 µg/mL (≈ 4.62 µM), respectively.

Regarding `CC(=O)NC(=N)N(C)CCC/C=C/CC(C)/C=C/CCCC(C)/C=C(\C)C(OC1OC(C(=O)O)C(O)C(O)C1O)C(C)/C=C/C=C/C=C/C=C/C=C(\C)C(=O)NC1=C(O)CCC1=O` (stereo not shown) [Compound 6, 6-{16-(N′-acetyl-N-methylguanidino)-1-[11-(2-hydroxy-5-oxocyclopent-1-enylcarbamoyl)-1-methyldodeca-2,4,6,8,10-pentaenyl]-2,4,10-trimethylhexadeca-2,8,12-trienyloxy}-3,4,5-trihydroxytetrahydropyran-2-carboxylic acid], the MIC – broadly, the least concentration at which growth counts as inhibited – in [1] (setting [10]) stood at 0.25 µg/mL (≈ 0.284 µM); in series [1] (setting [11]) it was 0.5 µg/mL (≈ 0.569 µM); in series [1] (setting [12]), 2 µg/mL (≈ 2.28 µM).

Turning to `C\C(=C/C=C/C=C/C=C/C=C/C(C)C(OC1OC(C(=O)O)C(O)C(O)C1O)/C(C)=C/C(C)CCC/C=C/C(C)C/C=C/CCCN(C)C(=N)N)C(=O)O` (stereo not shown) [Compound 7, 6-[1-(11-carboxy-1-methyldodeca-2,4,5,8,10-pentaenyl)-2,4,10-trimethyl-16-(N-methylguanidino)-hexadeca-2,8,12-trienyloxy]-3,4,5-trihydroxy-tetrahydropyran-2-carboxylic acid], the minimum inhibitory concentration (MIC) in [1] (setting [12]) was 32 to 64 µg/mL (≈ 43.1 to 86.3 µM).

Regarding `CN[C@H](CC(C)C)C(=O)N[C@H]1C(=O)N[C@@H](CC(N)=O)C(=O)N[C@H]2C(=O)N[C@H]3C(=O)N[C@H](C(=O)N[C@H](C(=O)O)c4cc(O)cc(O)c4-c4cc3ccc4O)[C@H](O)c3ccc(c(Cl)c3)Oc3cc2cc(c3O[C@@H]2O[C@H](CO)[C@@H](O)[C@H](O)[C@H]2O[C@H]2C[C@](C)(N)[C@H](O)[C@H](C)O2)Oc2ccc(cc2Cl)[C@H]1O` [Vancomycin, reference compound], the minimal inhibitory concentration (MIC) in series [2] is 0.125 µg/mL (≈ 0.0863 µM); in [3], 0.25 µg/mL (≈ 0.173 µM); in [4], 4 µg/mL (≈ 2.76 µM); in [5] it was 8 to 16 µg/mL (≈ 5.52 to 11 µM); in series [6] it was 1 µg/mL (≈ 0.69 µM); in series [7], 2 µg/mL (≈ 1.38 µM). Moreover, the MIC in series [8] worked out at 4 µg/mL (≈ 2.76 µM); in series [9], 2 µg/mL (≈ 1.38 µM); in series [1] (pH 5), 1 µg/mL (≈ 0.69 µM); in series [1] (pH 6), 1 µg/mL (≈ 0.69 µM); in series [1] (pH 7), 1 µg/mL (≈ 0.69 µM).
